# According to patent US20100286145A1, “ISOPHTHALAMIDE DERIVATIVES INHIBITING BETA-SECRETASE ACTIVITY” (CoMentis, Inc., priority 2007, published 2010):
# Like-named read-outs stand apart in the source and are kept apart here.
# Legend:
# [1] = tested on: Aβ production in Chinese hamster ovary cells that over-express human APP695 with the London and Swedish mutations; assay: Cellular Aβ IC50 determination (Aβ40 sandwich ELISA); format: cell-based; details: Cricetulus griseus; cellular Aβ production; read-out: IC50
# Experimental: The potency of compounds against memapsin 2 activity was determined in a cellular assay of Aβ production. […] Chinese hamster ovary cells that over-express human APP695 with the London and Swedish mutations were seeded in multi-well plates at 10% confluency. Compounds are dissolved in DMSO to concentrations near 1 mM, and diluted into culture media to a final concentration near 4 μM (final 0.4% DMSO). […] Aliquots were removed and assayed for Aβ40 content using a sandwich ELISA (BioSource International). Amount of Aβ40 over the range of concentration of compounds, relative to control incubations, were fit to a 4-parameter IC50 model.
# memapsin 2 = memapsin 2 (Homo sapiens, UniProt P56817); assay: Inhibition of memapsin 2 beta-secretase activity (fluorogenic substrate FS-2); format: biochemical; details: memapsin 2, pH 4, 37° C., read-out: M2Ki
# memapsin 2, sequence (P56817 46-501): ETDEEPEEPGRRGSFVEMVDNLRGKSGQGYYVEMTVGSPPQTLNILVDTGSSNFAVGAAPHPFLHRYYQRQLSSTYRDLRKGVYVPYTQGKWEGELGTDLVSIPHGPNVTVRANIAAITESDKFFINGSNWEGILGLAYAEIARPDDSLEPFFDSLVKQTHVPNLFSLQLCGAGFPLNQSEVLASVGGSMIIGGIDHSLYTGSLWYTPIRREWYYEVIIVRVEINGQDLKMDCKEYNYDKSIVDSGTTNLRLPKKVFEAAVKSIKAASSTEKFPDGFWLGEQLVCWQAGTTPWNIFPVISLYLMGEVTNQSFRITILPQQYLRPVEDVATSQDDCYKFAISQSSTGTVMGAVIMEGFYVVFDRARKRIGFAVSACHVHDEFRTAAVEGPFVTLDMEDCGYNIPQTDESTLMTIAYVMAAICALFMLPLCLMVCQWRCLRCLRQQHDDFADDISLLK
# Outline: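 Memapsin 2 pre-incubated 20 min with compound at pH 4, 37° C, then FS-2 substrate (MCA-SEVNLDAEFK-DNP, APP Swedish cleavage site) added. Rate of fluorescence increase compared with uninhibited controls, fitted to a tight-binding inhibition model.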
SMILES,IC50 [1],Ki (memapsin 2; 20 minutes pre-incubation),Ki (memapsin 2; fluorogenic substrate FS-2)
"Cc1csc(CN(C)C(=O)c2cccc(C(=O)N[C@@H](Cc3ccccc3)[C@H](O)CNCc3cc(OCc4ccccc4)cc(C(C)C)c3)c2)n1 [Compound 116, N1-((2S,3R)-4-(3-(benzyloxy)-5-isopropylbenzylamino)-3-hydroxy-1-phenylbutan-2-yl)-N3-methyl-N3-((4-methylthiazol-2-yl)methyl)isophthalamide]",< 1 µM,< 0.3 µM,
"Cc1csc(CN(C)C(=O)c2cccc(C(=O)N[C@@H](Cc3ccccc3)[C@H](O)CNCc3cc(N)cc(C(C)C)c3)c2)n1 [Compound 75, N1-((2S,3R)-4-(3-amino-5-isopropylbenzylamino)-3-hydroxy-1-phenylbutan-2-yl)-N3-methyl-N3-((4-methylthiazol-2-yl)methyl)isophthalamide]",< 1 µM,< 0.3 µM,
"COc1cccc(CNC[C@@H](O)[C@H](Cc2ccccc2)NC(=O)c2cccc(C(=O)NCc3nccc(C)n3)c2)c1 [Compound 102, N1-((2S,3R)-3-hydroxy-4-(3-methoxybenzylamino)-1-phenylbutan-2-yl)-N3-((4-methylpyrimidin-2-yl)methyl)isophthalamide]",> 5 µM,> 0.501 µM,
"COc1cccc(CNC[C@@H](O)[C@H](Cc2ccccc2)NC(=O)c2cc(C(=O)N(C)Cc3nc(C)cs3)cc(-c3ncco3)c2)c1 [Compound 85, N1-((2S,3R)-3-hydroxy-4-(3-methoxybenzylamino)-1-phenylbutan-2-yl)-N3-methyl-N3-((4-methylthiazol-2-yl)methyl)-5-(oxazol-2-yl)isophthalamide]",< 1 µM,< 0.3 µM,
"COc1cccc(CNC[C@@H](O)[C@H](Cc2ccccc2)NC(=O)c2cc(F)cc(C(=O)N(C)Cc3nc(C)cs3)c2)c1 [Compound 4, 5-fluoro-N1-((2S,3R)-3-hydroxy-4-(3-methoxybenzylamino)-1-phenylbutan-2-yl)-N3-methyl-N3-((4-methylthiazol-2-yl)methyl)isophthalamide]",< 1 µM,< 0.3 µM,
"Cc1csc(CN(C)C(=O)c2cc(C(=O)N[C@@H](Cc3ccccc3)[C@H](O)CNCc3cncc(C(C)C)c3)cc(N(C)C)c2)n1 [Compound 162, 5-(dimethylamino)-N1-((2S,3R)-3-hydroxy-4-((5-isopropylpyridin-3-yl)methylamino)-1-phenylbutan-2-yl)-N3-methyl-N3-((4-methylthiazol-2-yl)methyl)isophthalamide]",< 1 µM,< 0.3 µM,
"C[C@@H](NC(=O)c1cc(C(=O)N[C@@H](Cc2ccccc2)[C@H](O)CNCc2cccc(C(=O)O)c2)cc(N(C)S(C)(=O)=O)c1)c1ccccc1 [Compound 113, 3-(((2R,3S)-2-hydroxy-3-(3-(N-methylmethylsulfonamido)-5-((R)-1-phenylethylcarbamoyl)benzamido)-4-phenylbutylamino)methyl)benzoic acid]",< 1 µM,< 0.3 µM,
"CNC(=O)c1cc(C(=O)N[C@@H](Cc2ccccc2)[C@H](O)CNCc2cccc(OC)c2)cc(C(=O)N[C@H](C)c2ccccc2)c1 [Compound 94, N1-((2S,3R)-3-hydroxy-4-(3-methoxybenzylamino)-1-phenylbutan-2-yl)-N3-methyl-N5-((R)-1-phenylethyl)benzene-1,3,5-tricarboxamide]",1 to 5 µM,> 0.501 µM,

# Continued, values first:
IC50 [1],Ki (memapsin 2; 20 minutes pre-incubation),Ki (memapsin 2; fluorogenic substrate FS-2),SMILES
< 1 µM,< 0.3 µM,,"Cc1csc(CN(C)C(=O)c2cc(C(=O)N[C@@H](Cc3ccccc3)[C@H](O)CNCc3cncc(C(C)C)c3)cc(-c3cccnc3)c2)n1 [Compound 200, N1-((2S,3R)-3-hydroxy-4-((5-isopropylpyridin-3-yl)methylamino)-1-phenylbutan-2-yl)-N3-methyl-N3-((4-methylthiazol-2-yl)methyl)-5-(pyridin-3-yl)isophthalamide]"
1 to 5 µM,,> 0.501 µM,"Cc1nnc(CN(C)C(=O)c2cccc(C(=O)N[C@@H](Cc3ccccc3)[C@H](O)CNCc3cncc(C(C)C)c3)c2)o1 [Compound 256, N1-((2S,3R)-3-hydroxy-4-((5-isopropylpyridin-3-yl)methylamino)-1-phenylbutan-2-yl)-N3-methyl-N3-((5-methyl-1,3,4-oxadiazol-2-yl)methyl)isophthalamide]"
< 1 µM,,< 0.3 µM,"Cc1csc(CN(C)C(=O)c2cc(C(=O)N[C@@H](Cc3ccccc3)[C@H](O)CNCc3cccc(C(F)(F)F)c3)cc(C(C)C)c2)n1 [Compound 273, N1-((2S,3R)-3-hydroxy-1-phenyl-4-(3-(trifluoromethyl)benzylamino)butan-2-yl)-5-isopropyl-N3-methyl-N3-((4-methylthiazol-2-yl)methyl)isophthalamide]"
< 1 µM,< 0.3 µM,,"CCS(=O)(=O)c1cc(CNC[C@@H](O)[C@H](Cc2ccccc2)NC(=O)c2cccc(C(=O)N(C)Cc3nc(C)cs3)c2)cc(C(C)C)c1 [Compound 188, N1-((2S,3R)-4-(3-(ethylsulfonyl)-5-isopropylbenzylamino)-3-hydroxy-1-phenylbutan-2-yl)-N3-methyl-N3-((4-methylthiazol-2-yl)methyl)isophthalamide]"
< 1 µM,,< 0.3 µM,"Cc1csc(CN(C)C(=O)c2cccc(C(=O)N[C@@H](Cc3ccccc3)[C@H](O)CNCc3cc(Cl)ccc3F)c2)n1 [Compound 261, N1-((2S,3R)-4-(5-chloro-2-fluorobenzylamino)-3-hydroxy-1-phenylbutan-2-yl)-N3-methyl-N3-((4-methylthiazol-2-yl)methyl)isophthalamide]"
< 1 µM,,< 0.3 µM,"Cc1csc(CN(C)C(=O)c2cc(C(=O)N[C@@H](Cc3ccccc3)[C@H](O)CNCc3cccc(C(F)(F)F)c3)cc(N3CCCC3=O)c2)n1 [Compound 233, N1-((2S,3R)-3-hydroxy-1-phenyl-4-(3-(trifluoromethyl)benzylamino)butan-2-yl)-N3-methyl-N3-((4-methylthiazol-2-yl)methyl)-5-(2-oxopyrrolidin-1-yl)isophthalamide]"
< 1 µM,< 0.3 µM,,"COc1cccc(CNC[C@@H](O)[C@H](Cc2ccccc2)NC(=O)c2cc(C(=O)N(C)Cc3nc(C)cs3)cc(N3CCCC3=O)c2)c1 [Compound 194, N1-((2S,3R)-3-hydroxy-4-(3-methoxybenzylamino)-1-phenylbutan-2-yl)-N3-methyl-N3-((4-methylthiazol-2-yl)methyl)-5-(2-oxopyrrolidin-1-yl)isophthalamide]"
< 1 µM,,< 0.3 µM,"CC(=O)Oc1cc(CNC[C@@H](O)[C@H](Cc2ccccc2)NC(=O)c2cccc(C(=O)N(C)Cc3nc(C)cs3)c2)cc(C(C)C)c1 [Compound 243, 3-(((2R,3S)-2-hydroxy-3-(3-(methyl((4-methylthiazol-2-yl)methyl)carbamoyl)benzamido)-4-phenylbutylamino)methyl)-5-isopropylphenyl acetate]"
1 to 5 µM,0.301 to 0.5 µM,,"Cc1csc(CN(C)C(=O)c2cccc(C(=O)N[C@@H](Cc3cscn3)[C@H](O)CNCc3cncc(C(C)C)c3)c2)n1 [Compound 183, N1-((2S,3R)-3-hydroxy-4-((5-isopropylpyridin-3-yl)methylamino)-1-(thiazol-4-yl)butan-2-yl)-N3-methyl-N3-((4-methylthiazol-2-yl)methyl)isophthalamide]"
